This note sets out measurements from patent publication US9650395B2, “Antibacterial compounds and methods for use” (PTC Therapeutics, Inc., priority 2011, dated 2017).

Bounds are passed on as bounds.

Assay [1] relates to various organisms. In words: Microdilution checkerboard method, combination with ciprofloxacin (MIC and FIC). The format is cell-based. The following applies: single agent.
The subject of assay [2] is super sensitive Gram-negative Escherichia coli (E. coli) BAS849. Kind of assay: Antibacterial activity, microbroth dilution MIC, E. coli BAS849. Particulars: Escherichia coli; E. coli BAS849, microbroth dilution; read-out: MIC, BAS849. The assay is classed as cell-based.
Assay [3] relates to control Gram-negative E. coli 25922 strain. Kind of assay: Antibacterial activity, microbroth dilution MIC, E. coli 25922. The assay is classed as cell-based, Escherichia coli. Particulars: Escherichia coli; E. coli 25922, microbroth dilution; read-out: MIC, 25922.
The test system of assay [4] is Gram-positive Staphylococcus aureus (S. aureus) 29213. Kind of assay: Antibacterial activity, microbroth dilution MIC, S. aureus 29213. The format is cell-based. Particulars: Staphylococcus aureus; S. aureus 29213, microbroth dilution; read-out: MIC, 29213.
Assay [5] has as its system quinolone resistant E. coli LZ3111. Kind of assay: Antibacterial activity, MIC, quinolone resistant E. coli LZ3111. The assay is classed as cell-based, Escherichia coli. Particulars: Escherichia coli, read-out: MIC, LZ3111. The source says:
(§1) The antibacterial activity from a microbroth dilution method may be presented as the minimum inhibitory concentration (MIC in […]). The MIC value is the lowest concentration of a drug which prevents macroscopically visible bacterial growth under test conditions.
Mutations in these regions are known to confer a high level resistance to the quinolone class of antibiotics.

In assay [6] the test system is E. coli ELZ4000 (MDR clinical isolate). Kind of assay: Antibacterial activity, MIC, MDR E. coli ELZ4000. The assay is classed as cell-based, Escherichia coli. Particulars: Escherichia coli; E. coli ELZ4000, MDR clinical isolate; read-out: MIC ELZ4000.
Assay [7] deals with E. coli ELZ4251 (MDR clinical isolate). In words: Antibacterial activity, MIC, MDR E. coli ELZ4251. The format is cell-based, Escherichia coli. The following applies: Escherichia coli, E. coli ELZ4251, MDR clinical isolate; read-out: MIC ELZ4251.
In assay [8] the test system is Acinetobacter baumannii (A. baumannii) BAA747. In words: Antibacterial activity, MIC, A. baumannii BAA747. The assay is classed as cell-based. Particulars: Acinetobacter baumannii; A. baumannii BAA747; read-out: MIC BAA747.
Assay [9] concerns Klebsiella pneumoniae (K. pneumoniae) 35657. Kind of assay: Antibacterial activity, MIC, K. pneumoniae 35657. The format is cell-based. The following applies: Klebsiella pneumoniae.
Assay [10] deals with resistant A. baumannii MXX2240 (MDR clinical isolate). Kind of assay: Antibacterial activity, MIC, resistant A. baumannii MXX2240. The assay is classed as cell-based, Acinetobacter baumannii. Particulars: Acinetobacter baumannii, resistant A. baumannii MMX2240, MDR clinical isolate; read-out: MIC MMX2240.
Assay [11] has as its system resistant K. pneumoniae MXX1232 (MDR clinical isolate). Kind of assay: Antibacterial activity, MIC, resistant K. pneumoniae MXX1232. The assay is classed as cell-based, Klebsiella pneumoniae. Particulars: Klebsiella pneumoniae; resistant K. pneumoniae MMX1232, MDR clinical isolate; read-out: MIC MMX1232.
Assay [12] deals with Pseudomonas aeruginosa (P. aeruginosa) 27853. In words: Antibacterial activity, MIC, P. aeruginosa 27853. The assay is classed as cell-based. Particulars: Pseudomonas aeruginosa, P. aeruginosa 27853; read-out: MIC 27853.
Excerpt: as §1
Antibacterial activity of test compounds against the Gram-negative bacterium Pseudomonas aeruginosa (P. aeruginosa) 27853 is shown in Table 5.

Assay [13] has as its system Haemophilus influenzae (H. influenzae) 49247. Kind of assay: Antibacterial activity, MIC, H. influenzae 49247. The following applies: Haemophilus influenzae; H. influenzae 49247; read-out: MIC 49247. The format is cell-based. An outline of the steps:
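Antibacterial activity against the Gram-negative organism Haemophilus influenzae strain 49247 was measured by microbroth dilution. The minimum inhibitory concentration (MIC) was taken as the lowest drug concentration that stopped bacterial growth from being visible to the naked eye under the test conditions.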

For assay [14], the system named is Moraxella catarrhalis (M. catarrhalis) 25238. Kind of assay: Antibacterial activity, MIC, M. catarrhalis 25238. The format is cell-based. Particulars: Moraxella catarrhalis, M. catarrhalis 25238; read-out: MIC 25238.
For assay [15], the system named is Neisseria meningitidis (N. meningitidis) 13090. In words: Antibacterial activity, MIC, N. meningitidis 13090. The assay is classed as cell-based. Particulars: Neisseria meningitidis; N. meningitidis 13090; read-out: MIC 13090.

For the compound `O=C(O)c1cn(C2CC2)c2cc(N3CCNCC3)c(F)cc2c1=O` [Cipro, ciprofloxacin, reference compound], the MIC was determined as 125 µg/mL in [1] (Acinetobacter baumannii, A. baumannii (MDR)); 0.098 µg/mL in assay [1] (Acinetobacter baumannii, BAA747, A. baumannii BAA747); 125 µg/mL in assay [1] (Escherichia coli, E. coli 3111); 0.013 µg/mL in [1] (Escherichia coli, E. coli 25922); 0.01 µg/mL in assay [1] (Klebsiella pneumoniae, K. pneumoniae 35657); 0.2 µg/mL in [1] (Pseudomonas aeruginosa, P. aeruginosa 27853). Further, the MIC in [1] (Staphylococcus aureus, S. aureus 29213) is 0.39 µg/mL; in assay [1] (Staphylococcus aureus, S. aureus (MDR)) it was 31.2 µg/mL.

As to `CCc1c(-c2ccc(N3CC4CC4(N)C3)cc2)[nH]c(=O)c(C(=O)O)c1O.Cl` (centres unmarked) [Cpd 277, 6-[4-(1-amino-3-azabicyclo[3.1.0]hex-3-yl)phenyl]-5-ethyl-4-hydroxy-2-oxo-1,2-dihydropyridine-3-carboxylic acid hydrochloride], the MIC is under 1 µg/mL in assay [2]; 1 to 3.5 µg/mL in assay [3]; 3.5 to 12.5 µg/mL in assay [4]; 3.5 to 12.5 µg/mL in [5]; 12.5 to 150 µg/mL in assay [6]; 12.5 to 150 µg/mL in assay [7]. The MIC in assay [8] is 3.5 to 12.5 µg/mL; in [9] it was 1 to 3.5 µg/mL; in assay [10], 12.5 to 150 µg/mL; in [11], 12.5 to 150 µg/mL; in [12], 12.5 to 150 µg/mL; in assay [13], 1 to 3.5 µg/mL. Also, the figures for the MIC in [14] and in [15] were 1 to 3.5 µg/mL and under 1 µg/mL, respectively.

Turning to `CCc1c(-c2ccc(N3CCC(C(C)(C)N)C3)cc2)[nH]c(=O)c(C(=O)O)c1O.Cl` (centres unmarked) [Cpd 279, 6-{4-[3-(2-aminopropan-2-yl)pyrrolidin-1-yl]phenyl}-5-ethyl-4-hydroxy-2-oxo-1,2-dihydropyridine-3-carboxylic acid hydrochloride], the MIC was under 1 µg/mL in [2]; 1 to 3.5 µg/mL in [3]; 12.5 to 150 µg/mL in assay [4]; under 1 µg/mL in assay [5]; 3.5 to 12.5 µg/mL in assay [6]; 1 to 3.5 µg/mL in [7]. The MIC in assay [8] lay within 12.5 to 150 µg/mL; in [9] it was 3.5 to 12.5 µg/mL; in assay [10], 3.5 to 12.5 µg/mL; in [11], 12.5 to 150 µg/mL; in assay [12], 12.5 to 150 µg/mL; in assay [13], 3.5 to 12.5 µg/mL. The MIC was in the range of 3.5 to 12.5 µg/mL in assay [14] and 12.5 to 150 µg/mL in [15].

As for `CCc1c(-c2ccc(N3C[C@H]4CCC[C@@H](NC)[C@H]4C3)cc2)[nH]c(=O)c(C(=O)O)c1O.Cl` [Cpd 296, 5-ethyl-4-hydroxy-6-{4-[(3aR,4R,7aS)-4-(methylamino)octahydro-2H-isoindol-2-yl]phenyl}-2-oxo-1,2-dihydropyridine-3-carboxylic acid hydrochloride], the MIC in assay [2] is under 1 µg/mL; in [3] it was 1 to 3.5 µg/mL; in assay [4], 1 to 3.5 µg/mL; in assay [5], under 1 µg/mL; in assay [6], 12.5 to 150 µg/mL; in assay [7], 3.5 to 12.5 µg/mL. Besides, the MIC fell in the range of 12.5 to 150 µg/mL in assay [8]; 1 to 3.5 µg/mL in [9]; 3.5 to 12.5 µg/mL in assay [10]; 12.5 to 150 µg/mL in [11]; 12.5 to 150 µg/mL in [12]; 3.5 to 12.5 µg/mL in assay [13]. Besides, the figures for the MIC in assay [14] and in [15] were 3.5 to 12.5 µg/mL and under 1 µg/mL, respectively.
